From US7070965B1, “Small molecule anticancer compounds and related production process” (priority 1998, dated 2006)
≈ marks a conversion by molar mass, not a printed value.

Assays:
[1] = tested on: normal human PBLs; assay: In situ cell death detection, POD; format: cell-based; conditions: 60 μg/ml, 8 hours
From the text: (§1) In Situ Cell Death Detection Kit, POD (Mannheim Boehringer GmbH) was used to detect the individual apoptotic cells. Cleavage of genomic DNA during apoptosis may yield double-stranded, low molecular weight DNA fragments as well as single strand breaks in high molecular weight DNA. Those DNA strand breaks can be identified by labeling free 3′-OH termini with modified nucleotides in an enzymatic reaction. In this kit terminal deoxynucleotidyl transferase (TdT) is used to label free 3′-OH ends in genomic DNA with fluorescein-dUTP. The incorporated fluorescein is visualized under fluorescence microscope directly. The incorporated fluorescein can also bind to anti-fluorescein antibody POD and be detected by substrate reaction. Stained cells can be analyzed under light microscope.
(§2) Four human tumor cell lines, K-562 human leukemia, SNU-1 human gastric carcinoma cell lines, MCF-7 human breast adenocarcinoma and H1688 human small cell lung carcinoma cell lines, as well as Human PBLs were treated with iso-C15 (60 μg/ml).
H1688, K-562 and DU145 human cancer cells and normal human PBLs were added with POD and incubated 30 min at 37° C., washed three times with PBS, then reacted with substrate AEC and incubated for 10 min at room temperature. The cells were analyzed under light microscope. […] It is evidenced that iso-C15 induces apoptosis of cancer cells but not normal human cells.

[2] = tested on: DU-145 human prostate carcinoma cell lines; assay: Apoptosis morphology, H&E, light microscope; format: cell-based; conditions: 60 μg/ml, 8 hours
Experimental: (§3) Human cancer cell lines DU-145 (prostate cancer), K562 (leukemia), HCT116 (colon cancer), H1688 (lung cancer), SUN423 (hepatocarcinoma), MCF7 (breast cancer), CRL-1687 (pancreatic cancer), and SUN-1 (gastric cancer) were obtained from American Type Culture Collection (ATCC). 30 ml blood was collected from a health person and normal peripheral mononuclear cells were separated by Ficoll separation solution (Sigma). All cells were maintained in RPMI 1640, DMEM, or McCoy medium supplemented with 10% FCS, […] streptomycin and 100 u/ml penicillin. Normal human peripheral mononuclear cells, K562 and SUN-1 were suspended cells. After spinning at 1,500 RPM for 5 min, supernatants were discharged and cells were resuspended and expended in fresh medium. The other tumor cell lines were adherent cells and were dispersed with 0.05% trypsin/0.01% EDTA (Irvine Scientific, CA) for expansion. Cells were seeded in T75 flasks at 2×10^6 cells/flask in culture medium supplemented with 10% fetal bovine serum and incubated overnight at 37° C. with 5% CO2. The adherent cells attached to the plate were striped with disposable cell scrapers (Fisher Scientific) after treated either with 1% iso-C15, anteiso-C15 or control solution for 1, 2, 4, 8 and 24 hours and then combined with respective float cells. […]

[3] = tested on: SNU-1 cells; assay: In situ cell death detection (TUNEL, fluorescence microscopy); format: cell-based, human; conditions: 60 μg/ml, 8 hours
From the text: as §1, §2
SNU-1 cells treated with iso-C15 for 8 hours were added with TUNEL-reaction mixture and incubated 60 min at 37° C. After washing with PBS for three times, cell morphology was analyzed directly under fluorescence microscopy.

[4] = tested on: UVB radiation-induced skin tumor; assay: Chemoprevention of UVB-induced skin cancer; format: in vivo, SKH-1 hairless mice; conditions: topical 200 μl of 10% iso-C15, 30 weeks, vs vehicle-treated group
Experimental: 13-methyltetradecanoic acid (iso-C15) was prepared by dissolving in NaOH solution and then in 0.8% Tween 80 with pH 7.5, with resulting concentration 10%.
Forty female SKH-1 hairless mice were divided into control and test groups, with 20 in each. The mice in both groups were treated topically once with 5.12 μg of DMBA dissolved in 200 μl acetone per mouse to achieve tumor initiation. One week later (day 8), animals in the test group were applied topically with 200 μl iso-C15 per application per mouse per day. The control group received 200 μl Tween 80 per application per mouse per day. Thirty minutes later, the animals in both groups were exposed to UVB (290–320 nm) radiation at a dose of 180 mJ/cm^2 per day to achieve UVB radiation-induced tumor promotion. The iso-C15 or vehicle treatments followed by UVB irradiation were performed twice a week up to 30 weeks from the start of UVB exposure. The animals were evaluated for tumor incidence at the end of 30 weeks.

[5] = tested on: K562 leukemia cells; assay: Apoptosis morphology, transmission electron microscope; format: cell-based, human; conditions: 60 μg/ml, 4 hours
Experimental: as §3

[6] = tested on: DU-145 human prostate carcinoma; assay: Cytotoxicity ID50/ID75/ID90, trypan blue dye exclusion; format: cell-based; conditions: 48 hours
Experimental: (§4) All cells in adherent culture were initiated at 5×10^4 cells/well in 96-well microplates and treated immediately with iso-C15 at different concentrations (0, 1.5, 3.0, 6.0, 15.0, 30.0, and 60.0 μg/ml) diluted with medium. Both untreated and solvent (NaOH and Tween 80) treated cells served as controls. The treated cells were incubated for 48 hours at 37° C. After incubation, the supernatants were removed and the cells were trypsinized and collected prior to viability assessment by trypan blue dye exclusion.
(§5) The ID50, ID75 and ID90 were determined in duplicate in every set of experiments, and each experiment was repeated three times under identical conditions. ID50, ID75 and ID90 were defined as the concentration of iso-C15 required to kill 50, 75 or 90%, respectively, of cells (compared with that in untreated cells) and computed using CalcuSyn for Windows software (Biosoft, Cambridge UK) based on Median Effect method by Dr. T. C. Chou.

[7] = tested on: MCF-7 human breast adenocarcinoma; assay: as above; format: cell-based; conditions: 48 hours
Experimental: as §4, §5

[8] = tested on: HCT 116 human colon carcinoma; assay: as above; format: cell-based; conditions: 48 hours
Experimental: as §4, §5

[9] = tested on: H1688 human small cell lung carcinoma; assay: as above; format: cell-based; conditions: 48 hours
Experimental: as §4, §5

[10] = tested on: SNU-423 human hepatocellular carcinoma; assay: as above; format: cell-based; conditions: 48 hours
Experimental: as §4, §5

Q: Which results are given for CC(C)CCCCCCCCCCCC(=O)O [iso-C15, 13-methyltetradecanoic acid]?
A: apoptotic cells stained, POD [1]: few stained apoptotic cells were seen; morphological changes indicative of apoptosis [2]: membrane blebs were noted; apoptotic cells, TUNEL fluorescence [3]: Several yellow fluorescent spots of apoptotic cells were noted; reduction in tumor incidence [4]: 40%; reduction of tumor volume [4]: 90%; morphological changes indicative of apoptosis [5]: exhibits typical apoptotic feature; ID75 [6]: 40.43 ± 5.72 mg/L (≈ 167 µM); ID90 [6]: 81.87 ± 8.85 mg/L (≈ 338 µM); ID75 [7]: 15.99 ± 1.28 mg/L (≈ 66 µM); ID90 [7]: 25.49 ± 1.68 mg/L (≈ 105 µM); ID75 [8]: 67.96 ± 8.25 mg/L (≈ 280 µM); ID90 [8]: 108.65 ± 13.35 mg/L (≈ 448 µM); ID75 [9]: 35.03 ± 3.59 mg/L (≈ 145 µM); ID90 [9]: 61.37 ± 8.06 mg/L (≈ 253 µM); ID75 [10]: 70.46 ± 9.36 mg/L (≈ 291 µM); ID90 [10]: 120.77 ± 15.82 mg/L (≈ 498 µM)
